Key:
Type in all cases: binding
panel of 442 kinases [1] = molecular target: T1, panel of 442 kinases (Homo sapiens, UniProt Q86UE8); settings: kinase TLK2; compound concentration 10 µM
T1 construct: purchased KINOMEscan
Description: (§1) We assessed the selectivity of members of this scaffold using the KINOMEscan methodology across a near comprehensive panel of 442 kinases [[18,27]].

panel of 442 kinases [2] = molecular target: T2, panel of 442 kinases (Homo sapiens, UniProt Q15303); settings: Compound Concentration 10 µM
T2 construct: purchased KINOMEscan
T2 sequence (Q15303 26-1308): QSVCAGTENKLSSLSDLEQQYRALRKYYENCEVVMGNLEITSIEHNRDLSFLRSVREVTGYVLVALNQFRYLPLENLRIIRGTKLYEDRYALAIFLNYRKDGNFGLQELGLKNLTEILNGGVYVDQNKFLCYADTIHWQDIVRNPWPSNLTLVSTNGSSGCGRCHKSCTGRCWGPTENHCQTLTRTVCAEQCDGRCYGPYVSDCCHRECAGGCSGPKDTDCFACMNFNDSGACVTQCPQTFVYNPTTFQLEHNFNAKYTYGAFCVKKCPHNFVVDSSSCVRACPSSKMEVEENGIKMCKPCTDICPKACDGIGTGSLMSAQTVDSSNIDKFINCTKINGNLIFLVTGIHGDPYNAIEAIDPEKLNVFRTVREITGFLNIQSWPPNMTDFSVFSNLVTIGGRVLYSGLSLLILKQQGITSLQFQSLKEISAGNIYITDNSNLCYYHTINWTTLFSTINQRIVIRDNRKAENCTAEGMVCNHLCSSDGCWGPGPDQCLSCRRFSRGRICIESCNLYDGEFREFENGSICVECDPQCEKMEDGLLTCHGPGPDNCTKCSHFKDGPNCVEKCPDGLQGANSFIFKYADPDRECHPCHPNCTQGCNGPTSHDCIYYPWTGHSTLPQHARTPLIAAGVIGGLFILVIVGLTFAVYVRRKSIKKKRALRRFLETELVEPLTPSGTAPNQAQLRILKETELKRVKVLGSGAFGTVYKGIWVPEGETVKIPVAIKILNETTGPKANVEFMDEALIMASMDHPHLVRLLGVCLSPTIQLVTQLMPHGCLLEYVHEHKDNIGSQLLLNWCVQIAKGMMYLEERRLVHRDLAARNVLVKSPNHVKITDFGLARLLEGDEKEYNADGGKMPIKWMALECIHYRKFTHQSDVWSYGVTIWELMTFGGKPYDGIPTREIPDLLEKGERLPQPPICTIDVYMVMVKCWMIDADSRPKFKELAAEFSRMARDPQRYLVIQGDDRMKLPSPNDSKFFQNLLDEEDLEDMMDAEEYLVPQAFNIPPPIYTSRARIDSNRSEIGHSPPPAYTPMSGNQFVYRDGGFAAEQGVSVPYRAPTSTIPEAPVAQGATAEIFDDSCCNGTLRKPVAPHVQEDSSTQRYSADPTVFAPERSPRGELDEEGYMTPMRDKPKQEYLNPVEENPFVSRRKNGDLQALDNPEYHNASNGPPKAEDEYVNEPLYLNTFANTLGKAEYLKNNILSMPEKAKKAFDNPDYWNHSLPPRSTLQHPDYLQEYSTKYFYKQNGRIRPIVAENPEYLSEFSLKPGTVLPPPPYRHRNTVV
Description: as §1

panel of 442 kinases [3] = molecular target: T3, panel of 442 kinases (Homo sapiens, UniProt O95747); settings: Compound Concentration 10 µM
T3 construct: purchased KINOMEscan
T3 sequence (O95747 whole entry): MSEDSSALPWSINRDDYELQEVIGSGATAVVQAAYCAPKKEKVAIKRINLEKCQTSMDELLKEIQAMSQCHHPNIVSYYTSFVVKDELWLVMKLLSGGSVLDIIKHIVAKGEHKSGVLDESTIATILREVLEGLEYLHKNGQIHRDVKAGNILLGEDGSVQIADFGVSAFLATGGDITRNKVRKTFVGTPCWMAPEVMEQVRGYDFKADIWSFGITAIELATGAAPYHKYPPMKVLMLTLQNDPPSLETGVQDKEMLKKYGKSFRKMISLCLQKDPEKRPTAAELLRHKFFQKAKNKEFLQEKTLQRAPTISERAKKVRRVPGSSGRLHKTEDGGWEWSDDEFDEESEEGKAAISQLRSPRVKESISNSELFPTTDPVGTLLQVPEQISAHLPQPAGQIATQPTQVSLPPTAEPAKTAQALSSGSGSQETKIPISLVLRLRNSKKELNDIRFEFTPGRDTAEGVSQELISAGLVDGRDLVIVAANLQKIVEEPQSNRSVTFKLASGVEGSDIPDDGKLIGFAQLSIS
Description: as §1

panel of 442 kinases [4] = molecular target: T4, panel of 442 kinases (Homo sapiens, UniProt Q8TDX7); settings: Compound Concentration 10 µM
T4 construct: purchased KINOMEscan
T4 sequence (Q8TDX7 whole entry): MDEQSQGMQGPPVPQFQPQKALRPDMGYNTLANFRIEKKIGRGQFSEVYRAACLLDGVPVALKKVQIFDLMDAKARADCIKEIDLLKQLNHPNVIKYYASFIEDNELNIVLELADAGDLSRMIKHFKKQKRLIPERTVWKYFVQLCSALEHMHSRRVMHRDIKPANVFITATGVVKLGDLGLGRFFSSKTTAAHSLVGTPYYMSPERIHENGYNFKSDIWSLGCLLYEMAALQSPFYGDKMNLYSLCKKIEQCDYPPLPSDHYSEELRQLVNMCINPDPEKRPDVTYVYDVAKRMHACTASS
Description: as §1

T1 sequence (Q86UE8 whole entry): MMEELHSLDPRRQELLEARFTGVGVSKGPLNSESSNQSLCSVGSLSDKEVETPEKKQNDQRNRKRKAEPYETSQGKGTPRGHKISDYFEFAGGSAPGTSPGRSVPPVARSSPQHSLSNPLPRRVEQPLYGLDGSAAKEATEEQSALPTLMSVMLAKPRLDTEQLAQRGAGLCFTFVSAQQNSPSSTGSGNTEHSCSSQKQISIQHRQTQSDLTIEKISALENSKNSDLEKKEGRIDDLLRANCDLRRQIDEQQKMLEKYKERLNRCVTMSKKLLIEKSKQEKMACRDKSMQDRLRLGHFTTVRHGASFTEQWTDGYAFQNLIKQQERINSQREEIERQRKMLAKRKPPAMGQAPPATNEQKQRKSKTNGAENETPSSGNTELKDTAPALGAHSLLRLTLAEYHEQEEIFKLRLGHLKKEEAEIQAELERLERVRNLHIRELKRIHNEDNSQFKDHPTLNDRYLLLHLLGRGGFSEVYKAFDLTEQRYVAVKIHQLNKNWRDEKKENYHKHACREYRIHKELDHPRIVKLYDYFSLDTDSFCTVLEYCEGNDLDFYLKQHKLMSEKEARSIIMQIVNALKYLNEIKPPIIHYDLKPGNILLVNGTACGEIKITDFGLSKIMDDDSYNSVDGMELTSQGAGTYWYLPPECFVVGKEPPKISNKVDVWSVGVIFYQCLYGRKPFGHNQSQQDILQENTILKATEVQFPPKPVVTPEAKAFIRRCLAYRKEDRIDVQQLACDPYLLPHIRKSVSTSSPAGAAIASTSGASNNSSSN

Structure (SMILES)	% Ctrl, TLK2 (panel of 442 kinases [1]) [% Ctrl]	KINOMEscan: ERBB4 (panel of 442 kinases [2])	KINOMEscan: OSR1 (panel of 442 kinases [3])	KINOMEscan: NEK7 (panel of 442 kinases [4])
COc1cc(C(=O)N2CCC(N3CCN(C)CC3)CC2)ccc1Nc1ncc2c(n1)N(C)c1ccccc1C(=O)N2C [15 (LRRK2-IN-1)]	99	100	88	100
COc1cc(C(=O)N2CCC(N3CCN(C)CC3)CC2)ccc1Nc1ncc2c(n1)N1CCc3cccc(c31)C(=O)N2C [Compound 24]	98	–	100	–
COc1cc(C(=O)N2CCC(N3CCN(C)CC3)CC2)ccc1Nc1ncc2c(n1)N(C1CCCC1)c1ccccc1C(=O)N2C [Compound 25, 11-cyclopentyl-2-((2-methoxy-4-(4-(4-methylpiperazin-1-yl)piperidine-1-carbonyl)phenyl)amino)-5-methyl-5H-benzo[e]pyrimido[5,4-b][1,4]diazepin-6(11H)-one]	94	100	100	100
CCOc1cc(C(=O)N2CCC(N3CCN(C)CC3)CC2)ccc1Nc1ncc2c(n1)N(C1CCCC1)c1ccccc1C(=O)N2C [Compound 26]	100	100	99	100
